Measured values: US9695155B2, “Herbicidal substituted pyrimidinyloxy benzene compounds” (E. I. DU PONT DE NEMOURS AND COMPANY, priority 2013, dated 2017)

Assays:
[1] = test system: barnyardgrass; experiment: Test A preemergence; format: in vivo, Echinochloa crus-galli; conditions: for Plant response rating, Barnyardgrass: 31 g ai/ha, 0 to 100 scale where 0 is no effect and 100 is complete control, visual, approximately 10 days; for Barnyardgrass plant response rating (0 to 100 scale, 0 is no effect, 100 is complete control): 125 g ai/ha
Summary of the method: (§1)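 Visual injury scored 0–100 (100 = complete control) against untreated controls about 10 days after treatment in a greenhouse. Test chemicals, formulated with surfactant in non-phytotoxic solvent, were sprayed on soil preemergence or on 2-10 cm, one- to two-leaf plants postemergence.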

[2] = test system: kochia; experiment: Test A preemergence; format: in vivo, Kochia scoparia; conditions: for Plant response rating, Kochia: 31 g ai/ha, 0 to 100 scale where 0 is no effect and 100 is complete control, visual, approximately 10 days; for Kochia plant response rating (0 to 100 scale): 125 g ai/ha
Summary of the method: as §1

[3] = test system: ragweed; experiment: Test A preemergence; format: in vivo, Ambrosia elatior; conditions: for Plant response rating, Ragweed: 31 g ai/ha, 0 to 100 scale where 0 is no effect and 100 is complete control, visual, approximately 10 days; for Ragweed plant response rating (0 to 100 scale): 125 g ai/ha
Summary of the method: as §1

[4] = test system: Italian ryegrass; experiment: Test A preemergence; format: in vivo, Lolium multiflorum; conditions: for Plant response rating, Ryegrass, Italian: 31 g ai/ha, 0 to 100 scale where 0 is no effect and 100 is complete control, visual, approximately 10 days; for Ryegrass, Italian plant response rating (0 to 100 scale): 125 g ai/ha
Summary of the method: as §1

[5] = test system: giant foxtail; experiment: Test A preemergence; format: in vivo, Setaria faberii; conditions: for Plant response rating, Foxtail, Giant: 31 g ai/ha, 0 to 100 scale where 0 is no effect and 100 is complete control, visual, approximately 10 days; for Foxtail, Giant plant response rating (0 to 100 scale): 125 g ai/ha
Summary of the method: as §1

[6] = test system: pigweed; experiment: Test A preemergence; format: in vivo, Amaranthus retroflexus; conditions: for Plant response rating, Pigweed: 31 g ai/ha, 0 to 100 scale where 0 is no effect and 100 is complete control, visual, approximately 10 days; for Pigweed plant response rating (0 to 100 scale): 125 g ai/ha
Summary of the method: as §1

[7] = test system: barnyardgrass; experiment: Test A postemergence; format: in vivo, Echinochloa crus-galli; conditions: 0 to 100 scale, 0 no effect, 100 complete control
Summary of the method: as §1

[8] = test system: kochia; experiment: Test A postemergence; format: in vivo, Kochia scoparia; conditions: 0 to 100 scale, 0 no effect, 100 complete control
Summary of the method: as §1

[9] = test system: ragweed; experiment: Test A postemergence; format: in vivo, Ambrosia elatior; conditions: 0 to 100 scale, 0 no effect, 100 complete control
Summary of the method: as §1

[10] = test system: Italian ryegrass; experiment: Test A postemergence; format: in vivo, Lolium multiflorum; conditions: 0 to 100 scale, 0 no effect, 100 complete control
Summary of the method: as §1

[11] = test system: giant foxtail; experiment: Test A postemergence; format: in vivo, Setaria faberii; conditions: 0 to 100 scale, 0 no effect, 100 complete control
Summary of the method: as §1

[12] = test system: pigweed; experiment: Test A postemergence; format: in vivo, Amaranthus retroflexus; conditions: 0 to 100 scale, 0 no effect, 100 complete control
Summary of the method: as §1

[13] = test system: wheat; experiment: Test A postemergence; format: in vivo, Triticum aestivum; conditions: 0 to 100 scale, 0 no effect, 100 complete control
Summary of the method: as §1

[14] = test system: corn; experiment: Test A postemergence; format: in vivo, Zea mays; conditions: 0 to 100 scale, 0 no effect, 100 complete control
Summary of the method: as §1

[15] = test system: blackgrass; experiment: Test A postemergence; format: in vivo, Alopecurus myosuroides; conditions: 0 to 100 scale, 0 no effect, 100 complete control
Summary of the method: as §1

[16] = test system: galium; experiment: Test A postemergence; format: in vivo, Galium aparine; conditions: 0 to 100 scale, 0 no effect, 100 complete control
Summary of the method: as §1

[17] = test system: rice; experiment: Test B flooded paddy test; format: in vivo, Oryza sativa; conditions: Flood, 250 g ai/ha; 0 to 100 scale where 0 is no effect and 100 is complete control
Summary of the method: (§2)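 Post-emergence paddy-water application at the 2-leaf stage, with 3 cm flood kept for the whole test. Response was judged visually relative to controls after 13 to 15 greenhouse days, 0 indicating no effect and 100 complete control.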

[18] = test system: sedge, umbrella; experiment: Test B flooded paddy test; format: in vivo, Cyperus difformis; conditions: Flood, 250 g ai/ha; 0 to 100 scale where 0 is no effect and 100 is complete control
Summary of the method: as §2

[19] = test system: Heteranthera limosa; experiment: Test B flooded paddy test; format: in vivo; conditions: Flood, 250 g ai/ha; 0 to 100 scale where 0 is no effect and 100 is complete control
Summary of the method: as §2

[20] = test system: barnyardgrass; experiment: Test B flooded paddy test; format: in vivo, Echinochloa crus-galli; conditions: Flood, 250 g ai/ha; 0 to 100 scale where 0 is no effect and 100 is complete control
Summary of the method: as §2

SMILES | Plant response rating, Barnyardgrass [1] | Barnyardgrass plant response rating (0 to 100 scale, 0 is no effect, 100 is complete control) [1] | Plant response rating, Kochia [2] | Kochia plant response rating (0 to 100 scale) [2] | Plant response rating, Ragweed [3] | Ragweed plant response rating (0 to 100 scale) [3] | Plant response rating, Ryegrass, Italian [4] | Ryegrass, Italian plant response rating (0 to 100 scale) [4] | Plant response rating, Foxtail, Giant [5] | Foxtail, Giant plant response rating (0 to 100 scale) [5] | Plant response rating, Pigweed [6] | Pigweed plant response rating (0 to 100 scale) [6] | Plant response rating, Barnyardgrass ([7]; 31 g ai/ha) | Plant response rating, Barnyardgrass ([7]; 125 g ai/ha) | Plant response rating, Kochia ([8]; 31 g ai/ha) | Plant response rating, Kochia ([8]; 125 g ai/ha) | Plant response rating, Ragweed ([9]; 31 g ai/ha) | Plant response rating, Ragweed ([9]; 125 g ai/ha) | Plant response rating, Ryegrass, Italian ([10]; 31 g ai/ha) | Plant response rating, Ryegrass, Italian ([10]; 125 g ai/ha) | further results
Fc1cccc(Oc2ncc(Cl)cn2)c1-n1cc(OC(F)F)cn1 [Compound 271] | 20 | 100 | 70 | 100 | 0 | 20 | 0 | 10 | 40 | 100 | 90 | 100 | 10 | 80 | 70 | 100 | 0 | 80 | 0 | 30 | Plant response rating, Foxtail, Giant ([11]; 31 g ai/ha): 10; Plant response rating, Foxtail, Giant ([11]; 125 g ai/ha): 90; Plant response rating, Pigweed ([12]; 31 g ai/ha): 70; Plant response rating, Pigweed ([12]; 125 g ai/ha): 100; Plant response rating, Wheat ([13]; 31 g ai/ha): 0; Plant response rating, Wheat ([13]; 125 g ai/ha): 40; Plant response rating, Corn ([14]; 31 g ai/ha): 20; Plant response rating, Corn ([14]; 125 g ai/ha): 30; Plant response rating, Blackgrass ([15]; 31 g ai/ha): 10; Plant response rating, Blackgrass ([15]; 125 g ai/ha): 80; Plant response rating, Galium ([16]; 31 g ai/ha): 70; Plant response rating, Galium ([16]; 125 g ai/ha): 100; Plant response rating, Rice [17]: 0; Plant response rating, Sedge, Umbrella [18]: 60; Plant response rating, Ducksalad [19]: 90; Plant response rating, Barnyardgrass [20]: 0
O=Cc1cn(-c2ccccc2Oc2ncc(Cl)cn2)nn1 [Compound 272] | 0 | 0 | 0 | 0 | 0 | 0 | 0 | 0 | 0 | 0 | 0 | 0 | 0 | 0 | 0 | 0 | 0 | 0 | 0 | 0 | Plant response rating, Foxtail, Giant ([11]; 31 g ai/ha): 0; Plant response rating, Foxtail, Giant ([11]; 125 g ai/ha): 0; Plant response rating, Pigweed ([12]; 31 g ai/ha): 0; Plant response rating, Pigweed ([12]; 125 g ai/ha): 0; Plant response rating, Wheat ([13]; 31 g ai/ha): 0; Plant response rating, Wheat ([13]; 125 g ai/ha): 0; Plant response rating, Corn ([14]; 31 g ai/ha): 0; Plant response rating, Corn ([14]; 125 g ai/ha): 0; Plant response rating, Blackgrass ([15]; 31 g ai/ha): 0; Plant response rating, Blackgrass ([15]; 125 g ai/ha): 0; Plant response rating, Galium ([16]; 31 g ai/ha): 0; Plant response rating, Galium ([16]; 125 g ai/ha): 0; Plant response rating, Rice [17]: 0; Plant response rating, Sedge, Umbrella [18]: 0; Plant response rating, Ducksalad [19]: 0; Plant response rating, Barnyardgrass [20]: 0
